The target of series [1] is cSrc (Homo sapiens, UniProt P12931). Description: c-Src enzyme inhibition (FRET). The class given is biochemical. In a few lines:
(§1)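 Enzyme was preincubated with test compound (added as 4, 0.4, 0.04 or 0.004 μg/mL solutions) for 2 hr at RT. FRET peptide (8 μM solution) and ATP solution (800 μM for c-Src, 60 μM for Syk) were then added for 1 hr, followed by 1 hr protease development.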

The target of series [2] is Syk (Homo sapiens, UniProt P43405). The series is described as follows: Syk enzyme inhibition (FRET). The format is biochemical. In a few lines:
as §1

Series [3] addresses T1, GSK3α (Homo sapiens, UniProt P49840). The series is described as follows: GSK 3α enzyme inhibition (FRET), Method 1. The class given is biochemical. To be noted: Table 4a1. In a few lines:
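GSK3α was preincubated with test compound for 2 hr at RT, then a FRET peptide substrate and ATP were added for 1 hr. Protease development for 1 hr cleaved only non-phosphorylated peptide, and phosphorylation was read as the coumarin/fluorescein emission ratio. Concentrations given are those of the added solutions: enzyme 500 ng/mL, peptide 8 μM, ATP 40 μM.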

The subject of series [4] is TNFα release, d-U937 cells. Description: LPS-induced TNFα release in d-U937 cells. The format is cell-based. To be noted: Homo sapiens, dU937; relative to 10 μg/mL BIRB796; Table 4c1; read-out: LPS Induced Release of Cytokine in d-U937 Cells, TNFα REC50. The essentials:
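U937 cells differentiated with PMA (100 ng/mL, 48–72 hr), pre-treated with compound for 2 hr, then stimulated with E. coli LPS (0.1 μg/mL) for 4 hr. Supernatant cytokine measured by sandwich ELISA; inhibition versus vehicle control, REC50 from concentration-response curve.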

Series [5] relates to IL-8 release, d-U937 cells. The series is described as follows: LPS-induced IL-8 release in d-U937 cells. The class given is cell-based. The following applies: Homo sapiens, dU937; Table 4c1; read-out: LPS Induced Release of Cytokine in d-U937 Cells, IL-8 IC50. In a few lines: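 IL-8 release after a 4 hr challenge with LPS (0.1 μg/mL, E. coli 0111:B4) following a 2 hr compound pretreatment. Cells were human U937 monocytes differentiated to macrophage-type with PMA 100 ng/mL for 48–72 hr. Relative 50% effective concentration derived from concentration–response data.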

The subject of series [6] is ICAM-1 expression, BEAS2B cells. The series is described as follows: Poly I:C-induced ICAM-1 expression in BEAS2B cells. The format is cell-based. The following applies: Homo sapiens, BEAS-2B; read-out: Poly IC induced ICAM1 in BEAS2B, IC50. The essentials: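 BEAS2B human bronchial epithelial cells pre-incubated 2 h with compound, then transfected with poly I:C (1 μg/mL) plus Oligofectamine. After 18 h, cell-surface ICAM-1 read by cell-based ELISA (A450–655), normalised to Crystal Violet cell number (A595); inhibition calculated against vehicle control at each concentration.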

Series [7] concerns HRV16 in MRC5 cells. The series is described as follows: HRV16 induced CPE in MRC5 cells. The class given is cell-based. The following applies: Human rhinovirus sp., HRV-16. Here is the method:
(j) Assessment of HRV16 Induced CPE in MRC5 Cells
MRC-5 cells are infected with HRV16 at an MOI of 1n DMEM containing 5% FCS and 1.5 mM magnesium chloride, followed by incubation for 1 hr at 33° C. to promote adsorption. The supernatants are aspirated, and then fresh media added followed by incubation for 4 days. Where appropriate, cells are pre-incubated with compound or DMSO for 2 hr, and the compounds and DMSO added again after washout of the virus.
After washing, 1% SDS in distilled water (100 μL) is added to each well, and the plates are shaken lightly for 1-2 hr prior to reading the absorbance at 660 nm. The percentage inhibition for each well is calculated. The IC50 value is calculated from the concentration-response curve generated by the serial dilutions of the test compounds.

Series [8] deals with d-U937 cells. Description: Cell viability: MTT assay. The format is cell-based, human. The following applies: 1 μg/mL. The essentials:
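Differentiated U937 cells exposed to compound at 1 or 10 μg/mL, either 4 h in 5% FCS or 24 h in 10% FCS RPMI1640. MTT then added for 1 h, formazan dissolved in DMSO and read at 550 nm. Viability loss given as % versus 0.5% DMSO vehicle; apparent gains appear negative.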

Series [9] concerns the target T1, GSK3α. Description: GSK 3α enzyme inhibition (FRET), Method 2. The format is biochemical. The following applies: Table 4a2, different laboratory.
The test system of series [10] is IL-8 release, PBMCs. The series is described as follows: LPS-induced IL-8 release in PBMC cells. The format is cell-based. The following applies: Homo sapiens, LPS stimulated, read-out: IC50 Values for Inhibition of Cytokine Release, PBMCs, IL-8. The essentials:
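PBMCs from healthy donors pretreated with compound for 2 h, then stimulated with 1 ng/ml LPS (E. coli 0111:B4) for 24 h at 37 °C, 5% CO2. Supernatant IL-8 and TNFα measured by sandwich ELISA with fluorescence read-out.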

Series [11] has as its system IL-2 release, PBMCs. The series is described as follows: IL-2 release in CD3/CD28 stimulated PBMC cells. The class given is cell-based. The following applies: Homo sapiens, read-out: IC50 Values for Inhibition of Cytokine Release, PBMCs, IL-2. Here is the method:
(§2) (c) IL-2 and IFN Gamma Release in CD3/CD28 Stimulated PBMC Cells
(§3) PBMCs from healthy subjects are separated from whole blood using a density gradient (Lymphoprep, Axis-Shield Healthcare). Cells are added to a 96 well plate pre-coated with a mixture of […] monoclonal antibodies (0.3 ug/ml eBioscience and 3 ug/ml BD Pharmingen respectively). Compound at the desired concentration is then added to the wells and the plate left for 3 days under normal tissue culture conditions. Supernatants are harvested and IL-2 and IFN gamma release determined by Sandwich ELISA (Duo-set, R&D System). The IC50 is determined from the dose response curve.

In series [12] the test system is IFN gamma release, PBMCs. The series is described as follows: IFN gamma release in CD3/CD28 stimulated PBMC cells. The following applies: Homo sapiens, read-out: IC50 Values for Inhibition of Cytokine Release, PBMCs, IFNγ. The format is cell-based. Here is the method: as §2, §3
Series [13] has as its system IL-8 release, HT29 cells. Description: IL-1β-induced IL-8 release in HT29 cells. The format is cell-based. The following applies: Homo sapiens, HT-29; IL-1β stimulated; read-out: IC50 Values for Inhibition of Cytokine Release, HT29 cells, IL-8. Here is the method: (d) IL-1β-Induced IL-8 Release in HT29 Cells
HT29 cells, a human colon adenocarcinoma cell line, are plated in a 96 well plate (24 hrs) and pre-treated with compounds at the desired concentration for 2 hours before addition of 5 ng/ml of IL-1β (Abeam) for 24 hours, Supernatants are harvested for IL-8 quantification by Sandwich ELISA (Duo-set, R&D System). The IC50 is determined from the dose response curve.

Series [14] has as its system PBMC cells. Description: Cell mitosis assay. The class given is cell-based. To be noted: Homo sapiens, read-out: % Inhibition of mitosis in PBMC cells at 5 μg/mL. Here is the method:
PBMCs from healthy subjects are separated from whole blood (Quintiles, London, UK) using a density gradient (Histopaque®-1077, Sigma-Aldrich, Poole, UK). The PBMCs (3 million cells per sample) are subsequently treated with 2% PHA (Sigma-Aldrich, Poole, UK) for 48 hr, followed by a 20 hr exposure to varying concentrations of test compounds. At 2 hr before collection, PBMCs are treated with demecolcine (0.1 μg/mL; Invitrogen, Paisley, UK) to arrest cells in metaphase. […] Fluorescence is observed using an ATTUNE flow cytometer (Invitrogen, Paisley, UK), gating for lymphocytes.

For series [15], the system named is BDF1 mice. The series is described as follows: TNBS-induced colitis in mice. The format is in vivo, mouse. The following applies: TNBS; 2.5 mg/kg; 2 days. Here is the method:
(C) TNBS-Induced Colitis in Mice […] On Day 0 of the study TNBS (200 μL) is administered intra-colonically via a plastic catheter followed by BID dosing of the vehicle, reference or test compound for 2 or 4 days. During the study animals are weighed every day and stool observations are made and recorded as a score, based on stool consistency. At the time of sacrifice on Day 2 (or Day 4) the large intestine is removed and the length and weight recorded. Sections of the colon are taken for either MPO analysis to determine neutrophil infiltration or for histopathology involving scoring to determine disease severity.

The mark [16] stands for this setting: Table 4a2, different laboratory.

cSrc, sequence (P12931 whole entry): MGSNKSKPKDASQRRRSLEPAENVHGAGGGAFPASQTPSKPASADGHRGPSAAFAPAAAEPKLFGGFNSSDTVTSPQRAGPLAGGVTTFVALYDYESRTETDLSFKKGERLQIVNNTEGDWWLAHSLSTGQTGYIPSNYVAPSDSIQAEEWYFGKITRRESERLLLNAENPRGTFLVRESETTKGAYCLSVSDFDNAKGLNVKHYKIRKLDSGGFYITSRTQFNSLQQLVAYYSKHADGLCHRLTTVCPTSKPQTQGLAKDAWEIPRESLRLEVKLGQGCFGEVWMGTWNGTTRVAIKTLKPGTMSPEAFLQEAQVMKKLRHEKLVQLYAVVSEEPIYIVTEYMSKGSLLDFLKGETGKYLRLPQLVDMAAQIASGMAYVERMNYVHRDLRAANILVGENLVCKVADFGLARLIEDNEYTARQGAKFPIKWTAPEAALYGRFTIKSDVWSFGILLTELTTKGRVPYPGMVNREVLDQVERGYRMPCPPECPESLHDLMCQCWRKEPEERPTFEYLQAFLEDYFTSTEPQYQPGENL
T1 sequence (P49840 whole entry): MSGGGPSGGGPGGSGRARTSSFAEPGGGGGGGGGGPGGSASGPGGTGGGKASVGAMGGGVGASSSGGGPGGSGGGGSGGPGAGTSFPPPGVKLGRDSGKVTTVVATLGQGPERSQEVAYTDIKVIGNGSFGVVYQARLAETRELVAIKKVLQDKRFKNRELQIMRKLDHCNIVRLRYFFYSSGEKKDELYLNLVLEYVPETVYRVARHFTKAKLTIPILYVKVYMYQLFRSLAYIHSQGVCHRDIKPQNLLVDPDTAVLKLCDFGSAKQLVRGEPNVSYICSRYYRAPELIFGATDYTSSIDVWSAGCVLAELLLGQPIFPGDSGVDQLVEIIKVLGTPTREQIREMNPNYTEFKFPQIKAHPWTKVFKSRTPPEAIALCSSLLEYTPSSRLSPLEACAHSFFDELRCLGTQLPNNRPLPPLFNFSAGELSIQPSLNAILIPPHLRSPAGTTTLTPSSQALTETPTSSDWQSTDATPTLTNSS

With `COc1ccc(C(=O)NCCN2CCOCC2)cc1Nc1nccc(Oc2ccc(NC(=O)Nc3cc(C(C)C)nn3-c3ccc(C)cc3)c3ccccc23)n1` [Example 30, 3-((4-((4-(3-(3-isopropyl-1-(p-tolyl)-1H-pyrazol-5-yl)ureido)naphthalen-1-yl)oxy)pyrimidin-2-yl)amino)-4-methoxy-N-(2-morpholinoethyl)benzamide], the IC50 (in general, the concentration that inhibits the measured activity by half) in series [1] (Table 4a1) is 1 nM; in series [2] (Table 4a1), 103 nM; in series [3] it was more than 13200 nM; in [5], 9 nM; in [6] it was 117 nM; in series [7], 0.43 nM. For the same compound, the EC50 in [4] is 2.1 nM. Further, the “Cell viability at time point in d-U937 cells, 4 h” value in series [8] is “−ve (−ve and +ve indicate that the value is below and above respectively, the no significant effect threshold, defined as 30% inhibition at 1 μg/mL at the time point indicated)”. Moreover, the “Cell viability at time point in d-U937 cells, 24 h” value in series [8] is “−ve (−ve and +ve indicate that the value is below and above respectively, the no significant effect threshold, defined as 30% inhibition at 1 μg/mL at the time point indicated)”.

In the case of `C#Cc1cc(Nc2nccc(Oc3ccc(NC(=O)Nc4cc(C(C)(C)C)nn4-c4ccc(C)cc4)c4ccccc34)n2)cc(C(=O)N[C@H](C)CN2CCOCC2)c1` [Example 83, (R)-3-((4-((4-(3-(3-(tert-Butyl)-1-(p-tolyl)-1H-pyrazol-5-yl)ureido)naphthalen-1-yl)oxy)pyrimidin-2-yl)amino)-5-ethynyl-N-(1-morpholinopropan-2-yl)benzamide], the half-inhibitory concentration (IC50) in series [1] (setting [16]) stood at 26 nM; in [2] (setting [16]) it was 59 nM; in series [9], 11700 nM; in series [10] it was 3.8 nM; in series [11], 124 nM; in series [12], 1.8 nM. Also, in [13], the IC50 stood at 5.3 nM. Also, the inhibition at 5 µg/mL in series [14] was found to be 20.9%.

As for `C#Cc1cc(Nc2nccc(Oc3ccc(NC(=O)Nc4cc(C(C)(C)C(F)(F)F)nn4-c4ccc(C)cc4)c4ccccc34)n2)cc(C(=O)NCCN2CCOCC2)c1` [Example 76, 3-Ethynyl-N-(2-morpholinoethyl)-5-((4-((4-(3-(1-(p-tolyl)-3-(1,1,1-trifluoro-2-methylpropan-2-yl)-1H-pyrazol-5-yl)ureido)naphthalen-1-yl)oxy)pyrimidin-2-yl)amino)-benzamide], the IC50 amounted to 45 nM in series [1] (setting [16]); 34 nM in series [2] (setting [16]); 1780 nM in series [9]; 2.1 nM in series [10]; 188 nM in [11]; 1.8 nM in series [12]. Further, the half-inhibitory concentration (IC50) in series [13] turned out to be 3 nM. Moreover, in series [14], the inhibition at 5 µg/mL came out at 23%.

In the case of `Cc1ccc(-n2nc(C(C)(C)C)cc2NC(=O)Nc2ccc(Oc3ccnc(Nc4cc(C)cc(C(N)=O)c4)n3)c3ccccc23)cc1` [Example 40, 3-((4-((4-(3-(3-(tert-butyl)-1-(p-tolyl)-1H-pyrazol-5-yl)ureido)naphthalen-1-yl)oxy)pyrimidin-2-yl)amino)-5-methylbenzamide], the IC50 was determined as 3 nM in [1] (Table 4a1); 9 nM in [2] (Table 4a1); 1340 nM in series [3]; 2.2 nM in series [5]; 0.7 nM in [6]; 2.9 nM in series [7]. Also, the EC50 in series [4] turned out to be 0.2 nM. For the same compound, the “Cell viability at time point in d-U937 cells, 4 h” value in series [8] was “−ve (−ve and +ve indicate that the value is below and above respectively, the no significant effect threshold, defined as 30% inhibition at 1 μg/mL at the time point indicated)”. Also, the “Cell viability at time point in d-U937 cells, 24 h” value in series [8] was “−ve (−ve and +ve indicate that the value is below and above respectively, the no significant effect threshold, defined as 30% inhibition at 1 μg/mL at the time point indicated)”.

In series [15], `CCCC1O[C@@H]2C[C@H]3[C@@H]4CCC5=CC(=O)C=C[C@]5(C)[C@H]4[C@@H](O)C[C@]3(C)[C@]2(C(=O)CO)O1` (stereo partly drawn) [Budesonide, reference compound] came in with an LP inflammation of 2.5 ± 0.4 and a Ulcer grade of 2.9 ± 0.6.

The values are drawn from patent publication US20140057915A1, “KINASE INHIBITORS” (TOPIVERT PHARMA LIMITED, priority 2012, published 2014).
